The values that follow come from paper PMC7866885 (PeerJ, 2021).

What all share (assay): DHFR activity, NADPH consumption at […] nm
What all share (format): biochemical

Assay [1] has as its target T1, S. suis dihydrofolate reductase (SsDHFR) (Streptococcus suis, UniProt A0A0H3N4C4).
T1 construct: gene dyr; full-length dhfr in pET15b (NdeI/BamHI, N-terminal vector tag kept); clarified lysate of E. coli BL21(DE3), not purified
T1 sequence (A0A0H3N4C4 1-170): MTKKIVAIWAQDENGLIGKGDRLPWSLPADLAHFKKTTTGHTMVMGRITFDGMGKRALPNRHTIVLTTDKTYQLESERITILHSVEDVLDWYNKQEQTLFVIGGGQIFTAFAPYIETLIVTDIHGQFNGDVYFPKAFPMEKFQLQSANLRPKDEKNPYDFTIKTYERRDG

For assay [2], the target named is T1, S. suis dihydrofolate reductase (SsDHFR). As to conditions: 0.1 mM dihydrofolate, 0.1 mM NADPH, 50 mM TES pH 7.0; lysate.
Assay [3] has the same target. As to conditions: 1 µM inhibitor; 0.1 mM dihydrofolate, 0.1 mM NADPH, 50 mM TES pH 7.0; lysate of overexpressing E. coli BL21(DE3), host DHFR background present.

Take `COc1ccc(OC)c(NCc2ccc3nc(N)nc(N)c3c2Cl)c1` [MMV675968]: in assay [1], the remaining activity at 1 µM was determined as 2%. For the compound `NC(=O)C1=CN([C@@H]2O[C@H](COP(=O)(O)OP(=O)(O)OC[C@H]3O[C@@H](n4cnc5c(N)ncnc54)[C@H](OP(=O)(O)O)[C@@H]3O)[C@@H](O)[C@H]2O)C=CC1` [NADPH], in assay [2], the “DHFR activity, NADPH consumption at 340 nm” value is “DHFR uses NADPH as a cofactor for the conversion of dihydrofolate (DHF) to tetrahydrofolate (THF)”. For the compound `CC1(C)N=C(N)N=C(N)N1c1ccc(Cl)cc1` [cycloguanil], the “% activity at 1 μM” value in assay [3] was “Trimethoprim, pyrimethamine, and cycloguanil were moderately effective at inhibiting SsDHFR”. For the compound `CCc1nc(N)nc(N)c1-c1ccc(Cl)cc1` [pyrimethamine], in assay [3], the “% activity at 1 μM” value is “Trimethoprim, pyrimethamine, and cycloguanil were moderately effective at inhibiting SsDHFR”.

By remaining activity is commonly meant the signal under treatment as a percentage of the control signal. A high value points to a small loss of activity.
